In US20240067632A1, “WEE1 Degrading Compounds and Uses Thereof” (Bristol-Myers Squibb Company, priority 2022, published 2024):
Like-named read-outs stand apart in the source and are kept apart here.

Assays:
WEE1 = molecular target: T1, WEE1 (Homo sapiens, UniProt P30291+Q96SW2); experiment: WEE1-ePL degradation assay (LentiX-WEE1-ePL-GSPT1-ND cells, InCELL Hunter luminescence, 4 h); type: cell-based; conditions: 293T-LentiX WEE1-ePL cells; for DC50: read-out: 293T-LentiX WEE1-ePL Degradation 4 hr (EC50)
T1 construct: C-terminal ePL-tagged (DiscoverX, Fremont, CA) full-length WEE1 expression construct; expressed in transfected cells; host or cells: LentiX-HEK293T (Invitrogen), lentiviral transduction; co-expressing GSPT1-GN (G576N, lacking the first 158 amino acids)
In short: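 Luminescent readout (InCELL Hunter, 30 min RT) of WEE1-ePL levels in transduced HEK293T cells after 4 h compound exposure at 37 °C. Dosing: 10 points, 3-fold steps, top 1 uM or 10 uM. EC50 from four-parameter logistic fit; Ymax set by DMSO.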

MKN45 cells = experiment: MKN45 cell proliferation assay (Cell-Titer-Glo, 120 h); type: cell-based; conditions: for EC50: Homo sapiens, MKN-45, 120 h, Cell-Titer-Glo, read-out: MKN45 Cell Prolif. 120 hr (EC50); for MKN45 Cell Prolif. 120 hr (Ymin-Obs): minimal percent of DMSO control observed in the concentrations tested
In short: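 Growth inhibition was read as blank-corrected Cell-Titer-Glo luminescence expressed as percent DMSO control after 120 h at 37 C, 400 cells/well. Compounds tested in triplicate as 10-point half-log series from 1 or 10 uM, 0.1% DMSO; four-parameter fit gave EC50, and lowest observed percent control was reported as Ymin-obs.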

[1] = lower limit of the fit (0 = luciferase inhibitor, Ymax = DMSO control)
[2] = lower limit of the fit (Ymin=0 luciferase inhibitor, Ymax DMSO control)

SMILES | 293T-LentiX WEE1-ePL Degradation 4 hr (Ymin) (WEE1; [1]) | DC50 (WEE1) | EC50 (MKN45 cells; growth inhibition) | 293T-LentiX WEE1-ePL Degradation 4 hr (Ymin) (WEE1; [2]) | EC50 (MKN45 cells) | MKN45 Cell Prolif. 120 hr (Ymin-Obs) (MKN45 cells)
CO[C@@H]1CN(Cc2ccc3nc(C4CCOCC4)ccc3c2)C[C@H]1Oc1ccc2c(c1)CN(C1CCC(=O)NC1=O)C2=O (stereo partly drawn) [3-(5-{[(3R,4R)-4-methoxy-1-{[2-(oxan-4-yl)quinolin-6-yl]methyl}pyrrolidin-3-yl]oxy}-1-oxo-2,3-dihydro-1H-isoindol-2-yl)piperidine-2,6-dione] | 37.67 | 11.7 nM | 16.9 nM | – | – | 22.78
O=C1CCC(N2Cc3cc(O[C@@H]4CN(Cc5ccc6nc([C@H]7CCOC7)ccc6c5)C[C@@H]4F)ccc3C2=O)C(=O)N1 (stereo partly drawn) [3-(5-{[(3R,4S)-4-fluoro-1-({2-[(3R)-oxolan-3-yl]quinolin-6-yl}methyl)pyrrolidin-3-yl]oxy}-1-oxo-2,3-dihydro-1H-isoindol-2-yl)piperidine-2,6-dione] | – | 3.84 nM | – | 30.72 | 4.96 nM | 13.2
O=C1CCC(N2Cc3cc(O[C@@H]4CN(Cc5ccc6nc([C@@H]7CCOC7)ccc6c5)C[C@@H]4F)ccc3C2=O)C(=O)N1 (stereo partly drawn) [3-(5-{[(3R,4S)-4-fluoro-1-({2-[(3S)-oxolan-3-yl]quinolin-6-yl}methyl)pyrrolidin-3-yl]oxy}-1-oxo-2,3-dihydro-1H-isoindol-2-yl)piperidine-2,6-dione] | – | 5.69 nM | – | 33.6 | 9.42 nM | 10.88
O=C1CCC(N2Cc3cc(O[C@@H]4CN(Cc5ccc6nc(C7CCOCC7)ccc6c5)C[C@@H]4F)ccc3C2=O)C(=O)N1 (stereo partly drawn) [3-(5-{[(3R,4S)-4-fluoro-1-{[2-(oxan-4-yl)quinolin-6-yl]methyl}pyrrolidin-3-yl]oxy}-1-oxo-2,3-dihydro-1H-isoindol-2-yl)piperidine-2,6-dione] | 36 | 13.2 nM | 7.13 nM | – | – | 8.923
CNC1(c2ccc3cc(CN4CC[C@H](Oc5ccc6c(c5)CN(C5CCC(=O)NC5=O)C6=O)C4)ccc3n2)COC1 (stereo partly drawn) [3-(5-{[(3S)-1-({2-[3-(methylamino)oxetan-3-yl]quinolin-6-yl}methyl)pyrrolidin-3-yl]oxy}-1-oxo-2,3-dihydro-1H-isoindol-2-yl)piperidine-2,6-dione] | 36 | 37.6 nM | 19.9 nM | – | – | 9.16
CN(C)C1CCN(c2ccc3cc(CN4CC[C@H](Oc5ccc6c(c5)CN(C5CCC(=O)NC5=O)C6=O)C4)ccc3n2)CC1 (stereo partly drawn) [3-(5-{[(3S)-1-({2-[4-(dimethylamino)piperidin-1-yl]quinolin-6-yl}methyl)pyrrolidin-3-yl]oxy}-1-oxo-2,3-dihydro-1H-isoindol-2-yl)piperidine-2,6-dione] | – | 26.2 nM | – | 32.07 | 19.7 nM | 15.14
CNC1CCN(c2ccc3cc(CN4CC[C@H](Oc5ccc6c(c5)CN(C5CCC(=O)NC5=O)C6=O)C4)ccc3n2)CC1 (stereo partly drawn) [3-(5-{[(3S)-1-({2-[4-(methylamino)piperidin-1-yl]quinolin-6-yl}methyl)pyrrolidin-3-yl]oxy}-1-oxo-2,3-dihydro-1H-isoindol-2-yl)piperidine-2,6-dione] | – | 64.4 nM | – | 38.12 | 84.9 nM | 25.09
COC[C@@H]1CCCC[C@H]1c1ccc2cc(CN3CC[C@H](Oc4ccc5c(c4)CN(C4CCC(=O)NC4=O)C5=O)C3)ccc2n1 (stereo partly drawn) [3-(5-{[(3S)-1-({2-[(1R,2R)-2-(methoxymethyl)cyclohexyl]quinolin-6-yl}methyl)pyrrolidin-3-yl]oxy}-1-oxo-2,3-dihydro-1H-isoindol-2-yl)piperidine-2,6-dione] | – | 3.65 nM | – | 20.92 | 2.53 nM | 12.91
CO[C@H]1CCCC[C@@H]1c1ccc2cc(CN3CC[C@H](Oc4ccc5c(c4)CN(C4CCC(=O)NC4=O)C5=O)C3)ccc2n1 (stereo partly drawn) [3-(5-{[(3S)-1-({2-[(1R,2S)-2-methoxycyclohexyl]quinolin-6-yl}methyl)pyrrolidin-3-yl]oxy}-1-oxo-2,3-dihydro-1H-isoindol-2-yl)piperidine-2,6-dione] | – | 4.52 nM | – | 25.39 | 7.63 nM | 23.82
CO[C@H]1CCC[C@@H]1c1ccc2cc(CN3CC[C@H](Oc4ccc5c(c4)CN(C4CCC(=O)NC4=O)C5=O)C3)ccc2n1 (stereo partly drawn) [3-(5-{[(3S)-1-({2-[(1R,2S)-2-methoxycyclopentyl]quinolin-6-yl}methyl)pyrrolidin-3-yl]oxy}-1-oxo-2,3-dihydro-1H-isoindol-2-yl)piperidine-2,6-dione] | – | 4.34 nM | – | 30.79 | 5.54 nM | 8.858
COC[C@@H]1CC[C@@H](c2ccc3cc(CN4CC[C@H](Oc5ccc6c(c5)CN(C5CCC(=O)NC5=O)C6=O)C4)ccc3n2)C1 (stereo partly drawn) [3-(5-{[(3S)-1-({2-[(1R,3R)-3-(methoxymethyl)cyclopentyl]quinolin-6-yl}methyl)pyrrolidin-3-yl]oxy}-1-oxo-2,3-dihydro-1H-isoindol-2-yl)piperidine-2,6-dione] | – | 3.01 nM | – | 34.2 | 3.05 nM | 8.79

Further lines, with some results ahead:

293T-LentiX WEE1-ePL Degradation 4 hr (Ymin) (WEE1; [1]) | DC50 (WEE1) | EC50 (MKN45 cells; growth inhibition) | 293T-LentiX WEE1-ePL Degradation 4 hr (Ymin) (WEE1; [2]) | EC50 (MKN45 cells) | SMILES | MKN45 Cell Prolif. 120 hr (Ymin-Obs) (MKN45 cells)
31 | 3.18 nM | 1.18 nM | – | – | O=C1CCC(N2Cc3cc(O[C@H]4CCN(Cc5ccc6nc([C@@H]7CCC[C@@H](O)C7)ccc6c5)C4)ccc3C2=O)C(=O)N1 (stereo partly drawn) [3-(5-{[(3S)-1-({2-[(1R,3R)-3-hydroxycyclohexyl]quinolin-6-yl}methyl)pyrrolidin-3-yl]oxy}-1-oxo-2,3-dihydro-1H-isoindol-2-yl)piperidine-2,6-dione] | 8.405
31.5 | 2.6 nM | 1.38 nM | – | – | O=C1CCC(N2Cc3cc(O[C@H]4CCN(Cc5ccc6nc([C@@H]7CC[C@@H](O)C7)ccc6c5)C4)ccc3C2=O)C(=O)N1 (stereo partly drawn) [3-(5-{[(3S)-1-({2-[(1R,3R)-3-hydroxycyclopentyl]quinolin-6-yl}methyl)pyrrolidin-3-yl]oxy}-1-oxo-2,3-dihydro-1H-isoindol-2-yl)piperidine-2,6-dione] | 8.2675
29 | 2.83 nM | 0.93 nM | – | – | CO[C@@H]1CCC[C@@H](c2ccc3cc(CN4CC[C@H](Oc5ccc6c(c5)CN(C5CCC(=O)NC5=O)C6=O)C4)ccc3n2)C1 (stereo partly drawn) [3-(5-{[(3S)-1-({2-[(1R,3R)-3-methoxycyclohexyl]quinolin-6-yl}methyl)pyrrolidin-3-yl]oxy}-1-oxo-2,3-dihydro-1H-isoindol-2-yl)piperidine-2,6-dione] | 7.97
30 | 4.74 nM | 1.95 nM | – | – | CO[C@@H]1CC[C@@H](c2ccc3cc(CN4CC[C@H](Oc5ccc6c(c5)CN(C5CCC(=O)NC5=O)C6=O)C4)ccc3n2)C1 (stereo partly drawn) [3-(5-{[(3S)-1-({2-[(1R,3R)-3-methoxycyclopentyl]quinolin-6-yl}methyl)pyrrolidin-3-yl]oxy}-1-oxo-2,3-dihydro-1H-isoindol-2-yl)piperidine-2,6-dione] | 7.45
– | 3.12 nM | – | 34.11 | 3.09 nM | COC[C@H]1CC[C@@H](c2ccc3cc(CN4CC[C@H](Oc5ccc6c(c5)CN(C5CCC(=O)NC5=O)C6=O)C4)ccc3n2)C1 (stereo partly drawn) [3-(5-{[(3S)-1-({2-[(1R,3S)-3-(methoxymethyl)cyclopentyl]quinolin-6-yl}methyl)pyrrolidin-3-yl]oxy}-1-oxo-2,3-dihydro-1H-isoindol-2-yl)piperidine-2,6-dione] | 8.888
32 | 3.33 nM | 0.655 nM | – | – | O=C1CCC(N2Cc3cc(O[C@H]4CCN(Cc5ccc6nc([C@@H]7CC[C@H](O)C7)ccc6c5)C4)ccc3C2=O)C(=O)N1 (stereo partly drawn) [3-(5-{[(3S)-1-({2-[(1R,3S)-3-hydroxycyclopentyl]quinolin-6-yl}methyl)pyrrolidin-3-yl]oxy}-1-oxo-2,3-dihydro-1H-isoindol-2-yl)piperidine-2,6-dione] | 7.585
27.5 | 3.49 nM | 1.96 nM | – | – | CO[C@H]1CCC[C@@H](c2ccc3cc(CN4CC[C@H](Oc5ccc6c(c5)CN(C5CCC(=O)NC5=O)C6=O)C4)ccc3n2)C1 (stereo partly drawn) [3-(5-{[(3S)-1-({2-[(1R,3S)-3-methoxycyclohexyl]quinolin-6-yl}methyl)pyrrolidin-3-yl]oxy}-1-oxo-2,3-dihydro-1H-isoindol-2-yl)piperidine-2,6-dione] | 7.623
